The source of these data is patent publication US20230133064A1, “T CELL MANUFACTURING PROCESS” (Adaptimmune Limited, priority 2020, published 2023).

Common to all, as to format: cell-based, human
The test system of assay [1] is T-cells stimulated with MAGEA4-positive cell line A375. Nature of the assay: Antigen-stimulated IFNγ release by ELISA, expanded T-cells co-cultured with A375 for 48 hours. As for the experimental part:
Function of expanded T-cells was evaluated based on the levels of cytokine release by expanded T-cells following antigen-stimulation with the MAGEA4-expressing cell line, A375. A375 MAGEA4 positive target cells were counted using automated cell counter and seeded in a 96 well U-bottom plate at 30,000 viable nucleated cells (VNC) per well, in 100 uL volume per well, one day prior to T-cell stimulation and incubated overnight at 37° C., 5% CO2. Wells that were used as “T cells alone” control, received 100 uL R10 media (RPMI medium with 10% FBS and 1% Penicillin/Streptomycin) only. Following overnight incubation of target cells, harvested and frozen T-cells were thawed at 37° C. in the water bath and washed with R10 media. Cells were rested in R10 media at a density of 2×10^6 VNC/mL for 2 hours at 37° C., 5% CO2. After 2-hour rest, T-cells were counted using automated cell counter, and cultures were normalised to 35% transduction efficiency for all donors combining calculated amount of transduced and non-transduced VNC for each condition. […] Colorimetric read-out was analysed (BMG LABTECH FLUOstar Omega plate reader) at OD 450. […] For the cytokine release assays, the target and effector cells were co-cultured for 48 hours then the supernatants were collected and analysed for IFN gamma levels by ELISA. […]
(In general: An ELISA detects its analyte on a solid surface through an enzyme-linked reagent.)

For assay [2], the system named is T cells. Put plainly: Memory phenotype flow cytometry (CCR7/CD45RA) of transduced CD8+ T cells at day 10 harvest. An excerpt:
All cells were expanded and transduced, using a static expansion system, (scalable G-Rex®). Cryopreserved leukapheresis starting materials from healthy donors or cancer patients were thawed, washed, activated with CD3/CD28 magnetic Dynabeads, and CD3+ positive fraction was magnetically separated. The starting leukapheresis material was similar across the healthy donors. CD3+ cells ranged from 44-64%, all with an increased purity of 79-87% following positive isolation using anti CD3/CD28 Dynabeads. CD3+ phenotyping identified a range of stem cell memory (SCM) markers (CCR7+/CD45RA+) ranging from 11.6-57% in the CD8+ compartment between individuals. Enriched CD3+ T cells were seeded based on total nucleated cell (TNC) counts at 1.5×10^6 TNC/cm^2 density in the G-Rex® static cell expansion system device, in 10% of final culture volume using TexMACS+5% human AB serum (HABS) supplemented with 100 IU/ml IL-2. Transduction with vector expressing a heterologous TCR (recognising MAGE-A4) was performed 18-26 hours post addition of CD3/CD28 Dynabeads to the cells, using lentivirus (LV) vector at a MOI of 0.45. Media was then added to top up to the final culture volume, this was performed 17-24 hours post transduction with TexMACS+5% HABS+500 IU/ml IL-2. Cells were then incubated at 37° C., 5% CO2 for a further 8 days. MK-2206 was added to the media at defined intervals; in day 0 seeding media and supplemented in media used for day 2 media addition, or solely supplemented in media for day 2 media addition. The concentration of the compound varied for each experiment, 10 uM, 7.5 uM, 5 uM, 2.5 uM, 2 uM, 1.5 uM, 1 uM, 0.5 uM, 0.25 uM, 0.1 uM, 0.05 uM as dictated in the following examples. T cells were harvested 10 days post seeding. After bead removal, T-cells were counted by automated cell analysis (with […]). Harvested cells were then frozen for later phenotypic and functional analysis as described. Flow cytometry was performed on healthy donor material on day 10 harvest from the described process to determine Memory Phenotype markers of cultured cells using CCR7 and CD45RA staining
On the technique in general: A flow cytometer gives signals particle by particle.

The subject of assay [3] is T cells. Nature of the assay: T cell expansion in G-Rex static culture, TNC counts at day 10 harvest (ViCELL). An excerpt:
All cells were expanded and transduced, using a static expansion system, (scalable G-Rex®). Cryopreserved leukapheresis starting materials from healthy donors or cancer patients were thawed, washed, activated with CD3/CD28 magnetic Dynabeads, and CD3+ positive fraction was magnetically separated. The starting leukapheresis material was similar across the healthy donors. CD3+ cells ranged from 44-64%, all with an increased purity of 79-87% following positive isolation using anti CD3/CD28 Dynabeads. CD3+ phenotyping identified a range of stem cell memory (SCM) markers (CCR7+/CD45RA+) ranging from 11.6-57% in the CD8+ compartment between individuals. Enriched CD3+ T cells were seeded based on total nucleated cell (TNC) counts at 1.5×10^6 TNC/cm^2 density in the G-Rex® static cell expansion system device, in 10% of final culture volume using TexMACS+5% human AB serum (HABS) supplemented with 100 IU/ml IL-2. Transduction with vector expressing a heterologous TCR (recognising MAGE-A4) was performed 18-26 hours post addition of CD3/CD28 Dynabeads to the cells, using lentivirus (LV) vector at a MOI of 0.45. Media was then added to top up to the final culture volume, this was performed 17-24 hours post transduction with TexMACS+5% HABS+500 IU/ml IL-2. Cells were then incubated at 37° C., 5% CO2 for a further 8 days. MK-2206 was added to the media at defined intervals; in day 0 seeding media and supplemented in media used for day 2 media addition, or solely supplemented in media for day 2 media addition. The concentration of the compound varied for each experiment, 10 uM, 7.5 uM, 5 uM, 2.5 uM, 2 uM, 1.5 uM, 1 uM, 0.5 uM, 0.25 uM, 0.1 uM, 0.05 uM as dictated in the following examples. T cells were harvested 10 days post seeding. After bead removal, T-cells were counted by automated cell analysis (with ViCELL). Harvested cells were then frozen for later phenotypic and functional analysis as described.
Healthy donor material (leukapheresis material comprising white blood cells separated from a donor sample of blood) was processed for culture in static expansion (G-Rex device) following the aforementioned process for a 10 day duration. The cells were cultured with MK-2206 (1.25, 2.5, 5.0, 10 uM) added to cultures on day 0+day 2 or day 2 alone (with the day 2 media addition). On harvest, Total Nucleated Cell (TNC) counts were performed using an automated cell counter (ViCELL) to provide expansion data, and flow cytometry performed to determine phenotype. The harvested cultures were frozen and later thawed for functional assessment, an antigen stimulated cytokine release assay (1.3 described above).
The concentration of MK-2206 was tested in further titratration from 0.05 to 10 uM to fully determine optimal dosing and day 0(+2) and day 2 alone are both assessed to determine the optimal time of addition. Again, expansion, phenotype and cytokine production data has been assessed. An additional four donors were tested at the varying concentrations, to provide a full titration range in this study, 10 uM to 0.05 uM. All donors were tested in 10 M G-Rex following the described process and were harvested on Day 10. Expansion data considered the timepoint of addition of MK-2206; Day 0+2 and Day 2 alone.

Where [4] appears, read: Day 0+2 addition, all concentrations 0.05-10 uM, across donors, FIG. 3A.

Consider `NC1(c2ccc(-c3nc4ccn5c(=O)[nH]nc5c4cc3-c3ccccc3)cc2)CCC1` [MK-2206], for which the “IFN gamma production following antigen stimulation versus untreated control” value in assay [1] (day 2 addition of MK-2206, FIG. 5) is on record as “highest increase”. The “IFN gamma production following antigen stimulation” value in assay [1] (increasing MK-2206 concentration, >5 uM, FIG. 5) is recorded as “decrease”. Besides, the “CCR7+CD45RA+ populations at harvest compared to the untreated control” value with T cells [2] (added on day 0+2 and day 2 alone, CD3+/Dextramer+/CD8+ compartment, FIG. 4) is reported as “increased”. The “EMRA population versus untreated control” value with T cells [2] (all concentrations tested) is listed as “remains similar to the untreated control”. The CD62L expression result in the assay on T cells [2] (cells cultured with MK-2206) was “increase”. Further, the “CCR7−CD45RA− effector memory (EM) populations” value with T cells [2] (cells cultured with MK-2206, FIG. 4) was “decrease”. The “expansion (TNC counts)” value in the assay with T cells [3] (10 uM, all timepoints for addition, FIG. 2) is “reduced expansion”. The TNC yield result in the assay on T cells [3] (Day 0(+2) addition, FIG. 2) was “low yield”. In addition, in the assay on T cells [3] (setting [4]), the “limit of expansion decrease (fold change to untreated control)” value was determined as 0.15 fold and the “limit of expansion increase (fold change to untreated control)” value was determined as 1.5 fold. The impact on expansion result with T cells [3] (Day 2 addition, 0.05-10 uM, FIG. 3B) was “no negative impact on expansion”. The “concentration providing peak expansion” value in the assay with T cells [3] (Day 2 addition, 3 donors, FIG. 3B) stood at 0.5 µM. In addition, the “expansion response relative to control” value in the assay on T cells [3] (Day 2 addition, all conditions, FIG. 3B) is recorded as 1-2 fold. Moreover, in the assay with T cells [3] (MK-2206 added on Day 2, after activation on day 0 and transduction on day 1), the T cell expansion entry is reported as “Improved T cell expansion”. Also, the TNC yield result in the assay on T cells [3] (day 2 alone addition, with exception of 10 uM, FIG. 2) is on record as “improved TNC yield”. The “expansion (TNC counts) compared to the untreated control” value in the assay with T cells [3] (healthy donor material, lower concentrations of MK-2206 (1.25-10 uM tested), day 10 harvest, FIG. 2) was “increased expansion”.
